We go through 74 compounds from patent US12274703B2, “Compositions and methods of treatment for neurological disorders comprising a dementia” (Gliapharm SA, priority 2017, dated 2025).

In this experiment the test system is astrocytes. The experiment is described as follows: Extracellular lactate quantification. It is filed as cell-based, mouse. As to conditions: Mus musculus, Astrocyte; Appendix II; lactate secretion; read-out: EC50. As to the method: Primary cultures of cerebrocortical astrocytes were obtained from 1-2-day-old OF1 mouse pups (Charles River Laboratories). Briefly, cortices were isolated and minced in small pieces under a dissecting microscope. The cells were incubated for 30 min at 37° C. in a solution containing 20 U/ml of papain enzyme (Worthington Biochemical), L-cysteine 1 mM (Sigma), and 10 kU/ml DNase I (Worthington Biochemical) for an enzymatic dissociation. Papain activity was stopped by the addition of fetal calf serum (FCS) to the solution, and a single-cell suspension was then obtained by mechanical dissociation, which consisted in cells trituration in a DMEM (D7777, Sigma-Aldrich) medium (supplemented with 44 mm NaHCO3, and 10 ml/L antibiotic/antimycotic solution) containing 10% FCS. The cells were seeded at an average density of 6×10^4 cells/cm^2 in poly-D-lysine-coated 96, 12 or 6-well culture plates, depending on their use, and incubated at 37° C. in a humidified atmosphere containing 5% CO2/95% air. Culture medium was renewed twice per week. Cells were stimulated and harvested between DIV14 and DIV17, when confluence and cell growth were optimal.
Secretion of L-lactate was determined in the extracellular medium of 96-well plated astrocytes after 90 min stimulation (at 37° C., in 5% CO2/95% air conditions) with the drug of interest. The stimulation medium was composed of D5030 medium (completed with D-glucose 5 mM and 44 mM sodium bicarbonate) for 90 min in concentrations ranging from 0 to 100 μM.
Briefly, 200 μl of a Glycine (Sigma)-Semicarbazide (Acros) 0.2M pH 10 buffer containing 3 mM NAD (Roche) and LDH 14 U/ml (Roche) was added to each well of a 96-well plate containing 30 μl aliquots complemented with 20 μl fresh complete D5030 medium. Samples were incubated at 37° C. for 1 h. After samples cooled down at room temperature, the fluorescence intensity (340 nm excitation/450 nm emission) that represents the amount of NADH produced was measured, and lactate concentration values were determined from a standard curve of L-lactate.
Statistical analysis consisted in ANOVA followed by Fisher LSD post-hoc test for pair-wise comparisons.
Levels of lactate secreted by astrocytes were measured in the extracellular medium at 90 min after stimulation with hits (molecules) from the CDC54K library.
As to `CCc1cc2c(NC3CCCC3)ncnc2s1` [887-0183], the EC50 worked out at 3.94 µM.
Next, `COc1ccc(NS(=O)(=O)c2ccc(NC(=O)C3CCCO3)cc2)cc1` (centres unmarked) [T5329723]: 4.61 µM.
Under `CC(=O)c1c(C)[nH]c(C(=O)N(C)Cc2ccc(C)cc2C)c1C` [T5705522] stands 2.53 µM; under `N#Cc1ccc(S(=O)(=O)Nc2ccccc2C(=O)NCc2ccccc2)cc1` [T5673322], 7.42 µM; under `CCc1cccc(NS(=O)(=O)c2ccc3c(c2)CCCN3C(C)=O)c1` [G855-0143], 4.72 µM.
On to `COc1ccc(NS(=O)(=O)c2cccc(NC(=O)c3ccccc3)c2)cc1` [T5274959], for which the EC50 stood at 4.12 µM.
Next, `CCNc1cc(C)nc(Nc2ccc(NC(=O)c3cccs3)cc2)n1` [G869-0071]: 4.9 µM.
As to `CCc1c(C)nc2ncnn2c1NC1CCCCC1` [Z606-8352], the EC50 turned out to be 4.11 µM.
Next, `Cc1nc2ncnn2c(NCc2ccco2)c1C` [Z606-8298]: 4.89 µM; `O=c1[nH]nc(OCCOc2ccc(Br)cc2)n1C1CC1` [T533260]: 6.84 µM.
Under `CC(=O)c1c(C)[nH]c(C(=O)C(C)N(C)Cc2ccc3c(c2)OCO3)c1C` (centres unmarked) [T5798761] stands 4.01 µM; under `COc1ccc(S(=O)(=O)Nc2ccc(N3CCCCS3(=O)=O)cc2)cc1C` [F2794-0128], 9.85 µM; under `FC(F)(F)c1cccc(CNc2ncnc3[nH]ncc23)c1` [F5285-0069], 6.29 µM.
Under `c1ccc(Cc2ccc(OCCn3ccnc3)cc2)cc1` [T5821723] stands 4.29 µM.
Regarding `O=C(Nc1ccc(S(=O)(=O)NCC2CCCO2)cc1)c1ccccc1` (centres unmarked) [Y031-0361], the EC50 is 8.23 µM.
Next, `CC1(C)Cc2cccc(OCC(O)CN3CCc4ccccc4C3)c2O1` (centres unmarked) [T0515-1783]: 5.39 µM; `C1CCCC(NC2=NCCCNC23CCCCC3)CC1` [Z076-0028]: 8.01 µM.
Consider `N#Cc1cc(C(=O)c2cc(F)ccc2O)cn(-c2ccc(F)c(Cl)c2)c1=O` [T0516-6894], for which the EC50 worked out at 8.21 µM.
As for `CCCCN1C(=O)C(C)(C(=O)Nc2ccc(OCC)cc2)Oc2cccnc21` (centres unmarked) [P621-1364], the EC50 was determined as 5.86 µM.
Next, `O=C(Nc1ccc(F)c(F)c1)c1ccc(Cl)c(S(=O)(=O)N2CCCC2)c1` [T5450239]: 4.42 µM; `CCCC(=O)Nc1nc(-c2ccc3c(c2)CCO3)cs1` [T5691896]: 5.21 µM; `CN(C)S(=O)(=O)c1cccc(C(=O)Nc2ccc(Oc3ccccc3)cc2)c1` [T5393500]: 3.43 µM.
Take `COc1ccc(NS(=O)(=O)c2cccc(NC(=O)c3cccs3)c2)cc1` [T0517-4117]: the EC50 turned out to be 5.43 µM.
Under `CCNc1cc(C)nc(Nc2ccc(NC(=O)Cc3ccccc3)cc2)n1` [G869-0064] stands 4.26 µM.
In the case of `Cc1ccc(OCCn2c(C)nc3ccccc32)cc1` [T5444083], the EC50 was found to be 4.59 µM.
Under `Cc1c(O)ccc2c(CN(C)CC3COc4ccccc4O3)cc(=O)oc12` (centres unmarked) [T5494352] stands 5.02 µM; under `CN(C)c1ccc2ncnc(N3CCN(C(=O)c4ccc(Cl)cc4)CC3)c2c1` [M381-0730], 3.19 µM.
Under `CC(=O)N1CC(C)(C)c2cc(S(=O)(=O)NCc3ccc(C)cc3)ccc21` [L302-0069] stands 6.27 µM; under `O=C(CN1CCCC1c1ccc2c(c1)OCCCO2)Nc1cc(F)cc(F)c1` (centres unmarked) [T5993799], 8.81 µM.
Under `c1ccc(-c2c[nH]c3ncnc(NCCN4CCOCC4)c23)cc1` [T0513-0213] stands 3.99 µM; under `Cc1ccc(S(=O)(=O)Nc2ccc(F)c(F)c2F)cc1[N+](=O)[O-]` [T5729557], 5.69 µM; under `Cn1nc(C(=O)Nc2ccc(Oc3ccccc3Cl)cc2)ccc1=O` [T5813085], 4.1 µM.
Regarding `Cc1sc2nc(CSc3nc4ccccc4c(=O)n3C)[nH]c(=O)c2c1C` [T0517-2783], the EC50 came to 3.84 µM.
Turning to `CCc1c(C)nc2ncnn2c1NC1CCCCCC1` [Z606-8351], the EC50 came out at 5 µM.
Under `CC(=O)N1CC(C)(C)c2cc(S(=O)(=O)Nc3ccc(F)cc3C)ccc21` [L302-0181] stands 5.05 µM; under `CCn1c(=O)c(C)nc2cc(C(=O)N(Cc3ccc(F)cc3)C3CC3)ccc21` [T5586091], 5.36 µM; under `CCN1C(=O)c2cccc3c(S(=O)(=O)Nc4ccc(OC)cc4OC)ccc1c23` [T5477696], 5.1 µM.
In the case of `CC(C)(C)NS(=O)(=O)c1cccc(C(=O)Nc2ccncc2)c1` [T5827594], the EC50 was 5.02 µM.
Next, `c1ccc(CN2CCOCC2)c(CNc2ncnc3ccsc23)c1` [T5790476]: 3.98 µM; `CCN(CC)C(=O)c1nc(CNC(=O)c2ccc3ccccc3n2)oc1C` [T993-1787]: 7.99 µM; `Cc1sc2nc(CSc3nc4ccccc4[nH]3)nc(N)c2c1C` [T5719257]: 2.85 µM.
For the compound `CC(=O)Nc1cccc(NC(=O)CSc2nc(C)c(C)n2C2CCCC2)c1` [T5788339], the 50% effective concentration (EC50) stood at 3.9 µM.
Under `Cc1ccc(-c2csc(NC(=O)c3ccncc3)n2)cc1[N+](=O)O` [T5694329] stands 1.59 µM; under `COc1cccc(C(CNc2nc(C(F)(F)F)nc3ccccc23)N(C)C)c1` (centres unmarked) [T5800607], 5.87 µM; under `CCCCn1c(CN(C)Cc2ccccc2)nc2c1c(=O)n(C)c(=O)n2C` [T5788545], 3.59 µM.
Next, `CCc1ccccc1NC(=O)CN(C)c1ncnc2c1oc1ccccc12` [T5712071]: 1.14 µM; `Cc1cccc(NC(=O)c2ccc(S(=O)(=O)Nc3ccccc3)cc2)n1` [T6125251]: 4.56 µM.
Next, `CN1c2ccccc2C(=O)NC1c1ccc(Cl)c(Cl)c1` (centres unmarked) [T5389517]: 5.74 µM; `CCOc1ccc(-c2csc3c(=O)n(Cc4ccncc4)cnc23)cc1OCC` [L115-0403]: 3.28 µM; `CCOc1ccc(C2(O)C(C)[N+]3=C(CCC3)N2c2ccc(OC)cc2)cc1` (centres unmarked) [T0500-6629]: 2.61 µM.
For the compound `O=S(=O)(Nc1ccc(S(=O)(=O)C(F)F)cc1)c1ccc(Cl)cc1` [T5311200], the concentration giving a half-maximal response (EC50) was 6.02 µM.
Next, `CC(=O)N1CCCc2cc(S(=O)(=O)Nc3ccc(OC(F)(F)F)cc3)ccc21` [G855-0183]: 6 µM; `COc1ccc(-c2csc(N3C(=O)CC4CS(=O)(=O)CC43)n2)cc1` (centres unmarked) [T5832764]: 4.02 µM.
Under `CCc1ccc(NS(=O)(=O)c2c(C)c(-c3nnc(C4CC4)o3)n(C)c2C)cc1` [M950-1515] stands 4.06 µM; under `Cc1nc2ccc(NC(=O)c3ccc4c(c3)CC(C)N4S(C)(=O)=O)cc2s1` (centres unmarked) [T5606387], 4.61 µM.
For `COc1cc(C)c(NC(=O)Cc2ccc(Cl)c(Cl)c2)cc1OC` [T5783794], the concentration for a half-maximal effect (EC50) worked out at 6.11 µM.
Under `CCc1ccc(S(=O)(=O)Nc2cc3c(cc2C)n(C)c(=O)n3C)cc1` [G433-0293] stands 4.48 µM; under `c1nc(NCc2ccc3c(c2)OCO3)c2sccc2n1` [T5787526], 3.89 µM.
Under `Cc1nc2ccccc2n1CCOc1ccc(Br)cc1` [T0505-4087] stands 7.07 µM; under `Cn1c(=O)c(N2CCC(NC(=O)Nc3cccc(Cl)c3)CC2)nc2ccccc21` [L932-0267], 4.64 µM; under `Cc1noc2ncnc(NC(C)CCc3ccccc3)c12` (centres unmarked) [E944-0182], 3.99 µM.
Next, `COc1ccc(CCNc2ncnc3c2cnn3C)cc1` [K405-2595]: 3.51 µM; `COc1ccccc1NC(=O)CO/N=C(/N)c1cccc(C(F)(F)F)c1` [T5770640]: 4.86 µM.
As to `Cc1nc2ncnn2c(NC2CCCCCC2)c1C` [Z606-8287], the EC50 worked out at 4.29 µM.
Next, `CCC(C)NS(=O)(=O)c1ccc(Oc2ccc(C)cc2)cc1` (centres unmarked) [T5400234]: 4.64 µM; `CCc1ccc(NC(=O)Cc2cn(C)c3ncccc23)cc1` [M508-0370]: 4.58 µM.
As for `O=S(=O)(Nc1ccc(Cl)cc1)c1ccc(F)c(Cl)c1` [T6947848], the EC50 turned out to be 5.5 µM.
Consider `Cc1cccc(NS(=O)(=O)c2ccc(F)c(Cl)c2)c1` [F3394-1364], for which the EC50 was 5.87 µM.
For `COc1ccc(C(C)NC(=O)c2cc(=O)c3ccccc3o2)cc1F` (centres unmarked) [T5710343], the EC50 amounted to 6.31 µM.
Under `COc1ccc(NS(=O)(=O)c2ccc(N3CCCCS3(=O)=O)cc2)cc1` [G508-0015] stands 4.83 µM.
Take `CC(=O)N1CCc2cc(S(=O)(=O)NCC(C)c3ccccc3)ccc21` (centres unmarked) [T5707230]: the EC50 worked out at 4.88 µM.
For `CCN(CC)S(=O)(=O)c1ccc(S(=O)(=O)Nc2ccc(C)cc2Cl)cc1` [T5453923], the EC50 is 5.36 µM.
With `CCOc1ccc(CN(C)CC(=O)Nc2cccc(C)c2)cc1OC` [T5318833], the 50% effective concentration (EC50) stood at 5.45 µM.
Under `CCc1ccc(S(=O)(=O)Nc2c(C)nn(C)c2C)cc1` [T5753165] stands 6.41 µM.
